Data set [1] is described as follows: Solubility in aqueous media. It is filed as physicochemical.
Data set [2] concerns metastatic renal cell carcinoma (mRCC). The experiment in a line: CABOSUN (ALLIANCE A031203) trial, cabozantinib vs sunitinib as initial targeted therapy. As to the method:
Pts were randomized 1:1 to receive Cabo (60 mg QD) or Sun (50 mg QD, 4 weeks on/2 weeks off). Pts were stratified by the IMDC risk groups (intermediate vs. poor risk) and bone metastasis (yes, no). […] Secondary endpoints included OS, investigator-assessed overall response rate (ORR), and toxicity. The Kaplan-Meier product-limit estimator was used to estimate the OS between treatment arms.

The test system of data set [3] is advanced renal cell carcinoma. The settings on record: nivolumab study; cited from earlier work.

For the compound `COc1cc2nccc(Oc3ccc(NC(=O)C4(C(=O)Nc5ccc(F)cc5)CC4)cc3)c2cc1OC.O=C(O)C[C@H](O)C(=O)O` [Cabozantinib (S)-malate salt, N-(4-(6,7-dimethoxyquinolin-4-yloxy)phenyl)-N′-(4-fluorophenyl)cyclopropane-1,1-dicarboxamide, (2S)-hydroxybutanedioate], the “Solubility in aqueous media” value in data set [1] was “practically insoluble in aqueous media”.

Take `CCN(CC)CCNC(=O)c1c(C)[nH]c(/C=C2\C(=O)Nc3ccc(F)cc32)c1C` [sunitinib, reference compound]: in data set [2] (human, in vivo), the “All-causality grade 3 or 4 adverse events” value worked out at 68%; the “Diarrhea, grade 3 or 4” value was “I1%”; the “Fatigue, grade 3 or 4” value is 15%; the “Hematologic adverse events, grade 3 or 4” value is recorded as 22%. In data set [2] (human, in vivo), the “Hypertension, grade 3 or 4” value is 22% and the “Palmar-plantar erythrodysesthesia, grade 3 or 4” value came to 4%. Besides, in data set [2] (in vivo), the “Median OS” value was found to be 21.8 months and the ORR came to 18%. The “Median PFS” value in data set [2] (untreated mRCC, intermediate or poor risk) worked out at 5.6 months.

As to nivolumab, the “Hazard ratio for death vs everolimus” value in data set [3] is listed as 0.73.

(Values after US11141413B2, “Method of treating renal cell carcinoma using N-(4-(6,7-dimethoxyquinolin-4-yloxy)phenyl)-N′-(4-fluorophenyl)cyclopropane-1,1-dicarboxamide, (2S)-hydroxybutanedioate” (Exelixis, Inc., priority 2016, dated 2021).)
